According to ChEMBL document CHEMBL3745711, “Discovery of potent and orally bioavailable inhibitors of Human Uric Acid Transporter 1 (hURAT1) and binding mode prediction using homology model” (Bioorg Med Chem Lett, 2016):

Columns and labels:
[1] = biological target: T1, Solute carrier family 22 member 12 (Homo sapiens, UniProt Q96S37); assay: Inhibition of human URAT1 expressed in HEK293 cells assessed as [14C]uric acid uptake after 12 mins by scintillation counter; assay type: cell-based
T1 sequence (Q96S37 whole entry): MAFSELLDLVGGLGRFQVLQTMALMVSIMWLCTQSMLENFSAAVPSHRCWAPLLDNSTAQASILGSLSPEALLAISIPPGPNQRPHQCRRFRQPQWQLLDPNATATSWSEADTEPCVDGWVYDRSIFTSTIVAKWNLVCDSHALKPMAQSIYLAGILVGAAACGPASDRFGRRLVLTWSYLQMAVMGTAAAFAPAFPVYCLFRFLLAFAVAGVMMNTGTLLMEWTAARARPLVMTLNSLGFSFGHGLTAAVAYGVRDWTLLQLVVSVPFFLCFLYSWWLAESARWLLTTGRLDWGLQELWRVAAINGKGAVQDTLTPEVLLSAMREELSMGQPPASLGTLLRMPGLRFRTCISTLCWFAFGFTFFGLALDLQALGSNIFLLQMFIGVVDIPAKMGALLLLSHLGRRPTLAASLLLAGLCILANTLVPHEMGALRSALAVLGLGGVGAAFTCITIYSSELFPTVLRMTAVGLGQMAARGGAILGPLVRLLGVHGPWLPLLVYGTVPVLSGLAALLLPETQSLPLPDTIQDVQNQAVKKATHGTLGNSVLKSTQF

[2] = Apparent volume of distribution in Sprague-Dawley rat at 3 mg/kg, po by LC-MS/MS analysis; assay type: ADME, organism-based; details: in vivo, read-out: Vz/F
[3] = Half life in rat liver microsomes; assay type: ADME
[4] = Intrinsic clearance in monkey liver microsomes; assay type: ADME, Macaca mulatta; details: rhesus monkey, read-out: CLH
[5] = Clearance in Sprague-Dawley rat at 3 mg/kg, po by LC-MS/MS analysis; assay type: ADME, organism-based; details: in vivo
[6] = Half life in human liver microsomes; assay type: ADME
[7] = Intrinsic clearance in human liver microsomes; assay type: ADME; details: read-out: CLH
[8] = Tmax in Sprague-Dawley rat at 3 mg/kg, po by LC-MS/MS analysis; assay type: ADME, organism-based; details: in vivo
[9] = Intrinsic clearance in rat liver microsomes; assay type: ADME; details: read-out: CLH
[10] = Half life in monkey liver microsomes; assay type: ADME, Macaca mulatta; details: rhesus monkey
[11] = Half life in Sprague-Dawley rat at 3 mg/kg, po by LC-MS/MS analysis; assay type: ADME, organism-based; details: in vivo
[12] = Cmax in Sprague-Dawley rat at 3 mg/kg, po by LC-MS/MS analysis; assay type: ADME, organism-based; set-up: dose 3 mg/kg, route oral; details: in vivo
[13] = Plasma protein binding in human; assay type: ADME, cell-free; details: read-out: PPB (converted)
[14] = AUC (0 to t) in Sprague-Dawley rat at 3 mg/kg, po by LC-MS/MS analysis; assay type: ADME, organism-based; details: in vivo
[15] = Clearance in cynomolgus monkey at 10 mg/kg, po by LC-MS/MS analysis; assay type: ADME, organism-based, Macaca fascicularis; details: in vivo
[16] = Bioavailability in Sprague-Dawley rat at 3 mg/kg, iv by LC-MS/MS analysis; assay type: ADME, organism-based; details: in vivo
[17] = AUC (0 to t) in cynomolgus monkey at 10 mg/kg, po by LC-MS/MS analysis; assay type: ADME, organism-based, Macaca fascicularis; details: in vivo
[18] = Toxicity in Sprague-Dawley rat administered once daily for 1 week; assay type: organism-based; details: in vivo
[19] = tested on: Canis familiaris; assay: AUC (0 to t) in beagle dog at 1 mg/kg, iv by LC-MS/MS analysis; assay type: ADME, organism-based, Canis lupus familiaris; details: in vivo
[20] = Mean residence time in Sprague-Dawley rat at 3 mg/kg, po by LC-MS/MS analysis; assay type: ADME, organism-based; details: in vivo
[21] = Cmax in beagle dog at 1 mg/kg, iv by LC-MS/MS analysis; assay type: ADME, organism-based, Canis lupus familiaris; set-up: dose 1 mg/kg, route intravenous; details: in vivo
[22] = tested on: Canis familiaris; assay: AUC (0 to t) in beagle dog at 5 mg/kg, po by LC-MS/MS analysis; assay type: ADME, organism-based, Canis lupus familiaris; details: in vivo
[23] = Mean residence time in beagle dog at 1 mg/kg, iv by LC-MS/MS analysis; assay type: ADME, organism-based, Canis lupus familiaris; details: in vivo
[24] = Cmax in beagle dog at 5 mg/kg, po by LC-MS/MS analysis; assay type: ADME, organism-based, Canis lupus familiaris; set-up: dose 5 mg/kg, route oral; details: in vivo
[25] = Bioavailability in beagle dog at 1 mg/kg, iv by LC-MS/MS analysis; assay type: ADME, organism-based, Canis lupus familiaris; details: in vivo
[26] = AUC (0 to t) in Sprague-Dawley rat at 3 mg/kg, iv by LC-MS/MS analysis; assay type: ADME, organism-based; details: in vivo
[27] = Half life in cynomolgus monkey at 10 mg/kg, po by LC-MS/MS analysis; assay type: ADME, organism-based, Macaca fascicularis; details: in vivo
[28] = Mean residence time in cynomolgus monkey at 10 mg/kg, po by LC-MS/MS analysis; assay type: ADME, organism-based, Macaca fascicularis; details: in vivo
[29] = tested on: Rattus norvegicus; assay: Toxicity in Sprague-Dawley rat assessed as no adverse effect at 100 mg/kg once daily for 1 week; assay type: organism-based; details: in vivo, 168 h
[30] = tested on: Canis familiaris; assay: Half life in beagle dog at 5 mg/kg, po by LC-MS/MS analysis; assay type: ADME, organism-based, Canis lupus familiaris; details: in vivo
[31] = tested on: Cynomolgus monkey; assay: Decrease in uric acid level in cynomolgus monkey serum administered as single oral dose measured after 24 hrs; assay type: functional, organism-based; details: Macaca fascicularis
[32] = Tmax in cynomolgus monkey at 10 mg/kg, po by LC-MS/MS analysis; assay type: ADME, organism-based, Macaca fascicularis; details: in vivo
[33] = Cmax in cynomolgus monkey at 10 mg/kg, po by LC-MS/MS analysis; assay type: ADME, organism-based, Macaca fascicularis; set-up: dose 10 mg/kg, route oral; details: in vivo
[34] = tested on: Canis familiaris; assay: Half life in beagle dog at 1 mg/kg, iv by LC-MS/MS analysis; assay type: ADME, organism-based, Canis lupus familiaris; details: in vivo
[35] = Cmax in Sprague-Dawley rat at 3 mg/kg, iv by LC-MS/MS analysis; assay type: ADME, organism-based; set-up: dose 3 mg/kg, route intravenous; details: in vivo
[36] = tested on: Canis familiaris; assay: Apparent volume of distribution in beagle dog at 1 mg/kg, iv by LC-MS/MS analysis; assay type: ADME, organism-based, Canis lupus familiaris; details: in vivo
[37] = Mean residence time in Sprague-Dawley rat at 3 mg/kg, iv by LC-MS/MS analysis; assay type: ADME, organism-based; details: in vivo
[38] = Mean residence time in beagle dog at 5 mg/kg, po by LC-MS/MS analysis; assay type: ADME, organism-based, Canis lupus familiaris; details: in vivo
[39] = Tmax in beagle dog at 5 mg/kg, po by LC-MS/MS analysis; assay type: ADME, organism-based, Canis lupus familiaris; details: in vivo
[40] = tested on: Canis familiaris; assay: Apparent volume of distribution in beagle dog at 5 mg/kg, po by LC-MS/MS analysis; assay type: ADME, organism-based, Canis lupus familiaris; details: in vivo
[41] = Half life in Sprague-Dawley rat at 3 mg/kg, iv by LC-MS/MS analysis; assay type: ADME, organism-based; details: in vivo
[42] = Apparent volume of distribution in cynomolgus monkey at 10 mg/kg, po by LC-MS/MS analysis; assay type: ADME, organism-based, Macaca fascicularis; details: in vivo, read-out: Vz/F
[43] = tested on: Rattus norvegicus; assay: Apparent volume of distribution in Sprague-Dawley rat at 3 mg/kg, iv by LC-MS/MS analysis; assay type: ADME, organism-based; details: in vivo
[44] = Clearance in Sprague-Dawley rat at 3 mg/kg, iv by LC-MS/MS analysis; assay type: ADME, organism-based; details: in vivo

## O=C(O)C1(Sc2ccnc3ccc(CO)cc23)CCC1
[1]
  IC50: 1.26 µM

## O=C(O)C1(Sc2ccnc3ccc(C(F)(F)F)cc23)CCC1
[2]
  Vd/F: 1.2 L/kg
[3]
  half-life: 3.08 h
[4]
  microsomal CLint: 4.9 µL/min/mg
[5]
  CL/F: 2 mL/min/kg
[6]
  half-life: 4.62 h
[7]
  microsomal CLint: 3.3 µL/min/mg
[8]
  Tmax: 1 h
[9]
  microsomal CLint: 4.7 µL/min/mg
[10]
  half-life: 3.15 h
[11]
  half-life: 8.8 h
[12]
  Cmax: 2700 ng/mL
[13]
  fraction unbound: 0.001
[14]
  AUC(0-t): 38200 ng·h/mL

## O=C(O)C1(Sc2ccnc3ccc(Br)cc23)CCC1 [SHR-4640]
[2]
  Vd/F: 0.14 L/kg
[15]
  CL/F: 1.3 mL/min/kg
[16]
  bioavailability: 74.8%
[17]
  AUC(0-t): 132000 ng·h/mL
[3]
  half-life: 3.28 h
[1]
  IC50: 0.0337 µM
[18]
  MTD at 168 h: 300 mg/kg
[4]
  microsomal CLint: 2.6 µL/min/mg
[19]
  AUCt: 4400 ng·h/mL
[5]
  CL/F: 0.39 mL/min/kg
[20]
  MRT: 6.8 h
[21]
  Cmax: 4700 ng/mL
[6]
  half-life: 13.6 h
[22]
  AUCt: 18600 ng·h/mL
[23]
  MRT: 3.2 h
[24]
  Cmax: 7700 ng/mL
[25]
  bioavailability: 86.1%
[7]
  microsomal CLint: 1.1 µL/min/mg
[26]
  AUC(0-t): 193000 ng·h/mL
[27]
  half-life: 7.3 h
[28]
  MRT: 6.3 h
[8]
  Tmax: 1.2 h
[29]
  Activity: Non-toxic
[30]
  t1/2: 5.2 h
[31]
  inhibition: Dose-dependent effect
[9]
  microsomal CLint: 4.4 µL/min/mg
[10]
  half-life: 5.8 h
[32]
  Tmax: 0.5 h
[11]
  half-life: 4.4 h
[33]
  Cmax: 46900 ng/mL
[34]
  t1/2: 4.7 h
[35]
  Cmax: 99700 ng/mL
[36]
  Vz/F: 1.6 L/kg
[37]
  MRT: 6 h
[12]
  Cmax: 20500 ng/mL
[38]
  MRT: 5 h
[13]
  fraction unbound: 0.013
[39]
  Tmax: 0.5 h
[40]
  Vz/F: 2.1 L/kg
[41]
  half-life: 4.9 h
[42]
  Vd/F: 0.8 L/kg
[43]
  Vz/F: 0.12 L/kg
[44]
  clearance: 0.29 mL/min/kg
[14]
  AUC(0-t): 146000 ng·h/mL

## O=C(O)C1(Sc2ccnc3ccc(OCCO)cc23)CCC1
[1]
  IC50: 1.89 µM

## O=C(O)C1(Sc2ccnc3ccccc23)CCC1
[2]
  Vd/F: 0.69 L/kg
[3]
  half-life: 6.88 h
[1]
  IC50: 0.448 µM
[4]
  microsomal CLint: 3 µL/min/mg
[5]
  CL/F: 2.5 mL/min/kg
[20]
  MRT: 3.2 h
[6]
  half-life: 2.02 h
[7]
  microsomal CLint: 7.2 µL/min/mg
[8]
  Tmax: 0.5 h
[9]
  microsomal CLint: 2.1 µL/min/mg
[10]
  half-life: 4.82 h
[11]
  half-life: 2.8 h
[12]
  Cmax: 8800 ng/mL
[13]
  fraction unbound: 0.002
[14]
  AUC(0-t): 20700 ng·h/mL

## O=C(O)C1(Sc2ccnc3ccc(-c4cccc(F)c4)cc23)CCC1
[1]
  IC50: 1.19 µM

## O=C(O)C1(Sc2ccnc3ccc(Br)cc23)CCCC1
[1]
  IC50: 0.324 µM

## O=C(Nc1ccc2nccc(SC3(C(=O)O)CCC3)c2c1)C1CC1
[1]
  IC50: > 10 µM

## Nc1ccc2nccc(SC3(C(=O)O)CCC3)c2c1
[1]
  IC50: 1.79 µM

## O=C(O)C1(Sc2ccnc3ccc(-c4ccc(C(F)(F)F)cc4)cc23)CCC1
[1]
  IC50: 1.75 µM

## O=C(O)C1(Sc2ccnc3ccncc23)CCC1
[1]
  IC50: 1.93 µM
